Laboratory results taken from US8524755B2 (priority 2009, dated 2013).

Legend:
tyrosine hydroxylase = biological target: T1, tyrosine hydroxylase (Rattus norvegicus, UniProt P04177); test: Enzyme assay tyrosine hydroxylase; type: biochemical; conditions: read-out: % Inhibition of Control Values @ 10 μM
T1 construct: rat striatum; from tissue; host or cells: rat striatum
Excerpt: (§1) The enzyme assays provided below will be familiar to those skilled in the art.
(§2) Analysis and Expression of Results: The results are expressed as a percent of control specific activity ((measured specific activity/control specific activity)×100) obtained in the presence of the test compounds.

PNMT = biological target: T2, PNMT (Bos taurus, UniProt P10938); test: Enzyme assay PNMT; type: biochemical, bovine; conditions: read-out: % Inhibition of Control Values @ 10 μM
T2 construct: bovine adrenal medulla; from tissue; host or cells: bovine adrenal medulla
T2 sequence (P10938 1-283): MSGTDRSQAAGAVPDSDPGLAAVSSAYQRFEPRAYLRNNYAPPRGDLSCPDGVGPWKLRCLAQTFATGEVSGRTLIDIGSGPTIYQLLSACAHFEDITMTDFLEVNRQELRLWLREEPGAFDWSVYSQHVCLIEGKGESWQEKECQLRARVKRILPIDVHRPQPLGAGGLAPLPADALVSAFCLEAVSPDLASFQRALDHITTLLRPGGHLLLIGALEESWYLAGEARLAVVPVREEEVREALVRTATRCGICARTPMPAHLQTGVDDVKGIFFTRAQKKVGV
Excerpt: as §1, §2

MAO-B (h) = biological target: T3, MAO-B (h) (Homo sapiens, UniProt P27338); test: Enzyme assay MAO-B (h); type: biochemical; conditions: read-out: % Inhibition of Control Values @ 10 μM
T3 construct: human platelets; from tissue; host or cells: human platelets
T3 sequence (P27338 1-520): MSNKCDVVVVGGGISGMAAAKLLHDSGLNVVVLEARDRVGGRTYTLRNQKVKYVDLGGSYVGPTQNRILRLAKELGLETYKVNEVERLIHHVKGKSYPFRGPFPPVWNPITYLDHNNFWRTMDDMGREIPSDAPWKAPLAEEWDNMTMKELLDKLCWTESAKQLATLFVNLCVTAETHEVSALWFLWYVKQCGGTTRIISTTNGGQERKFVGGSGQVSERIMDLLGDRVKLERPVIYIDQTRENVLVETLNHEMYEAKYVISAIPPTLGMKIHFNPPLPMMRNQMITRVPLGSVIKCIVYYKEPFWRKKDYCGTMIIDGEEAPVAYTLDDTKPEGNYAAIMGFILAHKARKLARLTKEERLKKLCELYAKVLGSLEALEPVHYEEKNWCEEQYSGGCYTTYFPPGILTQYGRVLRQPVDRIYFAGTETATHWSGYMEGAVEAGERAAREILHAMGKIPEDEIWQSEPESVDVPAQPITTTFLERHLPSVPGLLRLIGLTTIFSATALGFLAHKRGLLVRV
Excerpt: as §1, §2

[1] = biological target: T4, choline transporter (CHT1) (h) (Homo sapiens, UniProt Q9GZV3); test: Binding choline transporter (CHT1) (h) (aa); conditions: read-out: % Inhibition of Control Specific Binding @ 10 μM
T4 construct: expressed in transfected cells; host or cells: CHO cells
T4 sequence (Q9GZV3 1-580): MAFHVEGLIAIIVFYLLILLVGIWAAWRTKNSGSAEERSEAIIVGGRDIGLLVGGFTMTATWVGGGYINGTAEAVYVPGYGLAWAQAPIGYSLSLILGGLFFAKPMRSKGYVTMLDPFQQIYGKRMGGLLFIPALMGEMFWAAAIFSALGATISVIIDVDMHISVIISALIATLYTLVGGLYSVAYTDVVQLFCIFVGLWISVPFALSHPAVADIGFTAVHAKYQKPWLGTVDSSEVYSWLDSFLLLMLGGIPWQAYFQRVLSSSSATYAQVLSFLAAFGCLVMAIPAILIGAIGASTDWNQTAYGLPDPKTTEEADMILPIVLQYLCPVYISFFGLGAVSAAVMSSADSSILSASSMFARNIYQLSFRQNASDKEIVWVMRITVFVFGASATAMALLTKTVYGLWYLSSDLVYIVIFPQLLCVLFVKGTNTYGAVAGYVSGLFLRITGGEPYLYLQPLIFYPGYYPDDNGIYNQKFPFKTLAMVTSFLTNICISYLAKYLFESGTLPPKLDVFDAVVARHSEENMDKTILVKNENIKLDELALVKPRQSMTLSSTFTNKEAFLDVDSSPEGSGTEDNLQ
Method: (§3) Radioligand binding assay methods utilized to measure the activity of compounds of the invention will be familiar to those skilled in the art. In each assay case, the assay components such as, for example, the cell-type, ligand, reference compound and the like, will be familiar to practitioners of such an assay.
(§4) Analysis and Expression of Results: Compounds of the invention were tested in the biochemical assays and percent inhibition of specific binding was determined. The specific ligand binding to the receptors is defined as the difference between the total binding and the nonspecific binding determined in the presence of an excess of unlabelled ligand. The results are expressed as a percent inhibition of control specific binding (100−((measured specific binding/control specific binding)×100)) obtained in the presence of test compounds.

GABA transporter = test: Binding GABA transporter (aa); design: species or system rat
Method: as §3, §4

Histamine H2 (h) = biological target: T5, Histamine H2 (h) (Homo sapiens, UniProt P25021); test: Binding H2 (h) (aa); conditions: read-out: % Inhibition of Control Specific Binding @ 10 μM
T5 construct: expressed in transfected cells; host or cells: CHO cells
T5 sequence (P25021 whole entry): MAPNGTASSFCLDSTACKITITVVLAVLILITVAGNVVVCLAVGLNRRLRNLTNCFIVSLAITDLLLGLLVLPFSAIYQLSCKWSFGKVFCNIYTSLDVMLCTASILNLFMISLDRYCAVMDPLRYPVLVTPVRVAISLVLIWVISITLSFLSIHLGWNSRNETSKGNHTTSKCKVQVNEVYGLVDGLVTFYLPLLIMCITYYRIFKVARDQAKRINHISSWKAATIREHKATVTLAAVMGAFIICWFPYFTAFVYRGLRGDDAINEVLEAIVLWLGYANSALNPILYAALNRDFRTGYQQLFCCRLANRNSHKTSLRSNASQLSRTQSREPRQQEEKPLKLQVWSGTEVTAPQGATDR
Method: as §3, §4

P2Y = test: Binding P2Y (ag); design: species or system rat
Method: as §3, §4

KV channel = test: Binding KV channel (aa); design: species or system rat
Method: as §3, §4

5-HT (ns) = test: Binding 5-HT (ns) (ag); design: species or system rat
Method: as §3, §4

[2] = tested on: Ca^2+ channel (L, dihydropyridine site); test: Binding Ca2+ channel (L, dihydropyridine site) (aa); design: species or system rat
Method: as §3, §4

Dopamine D3 (h) = biological target: T6, Dopamine D3 (h) (Homo sapiens, UniProt P35462); test: Binding D3 (h) (aa); conditions: read-out: % Inhibition of Control Specific Binding @ 10 μM
T6 construct: expressed in transfected cells; host or cells: CHO cells
T6 sequence (P35462 whole entry): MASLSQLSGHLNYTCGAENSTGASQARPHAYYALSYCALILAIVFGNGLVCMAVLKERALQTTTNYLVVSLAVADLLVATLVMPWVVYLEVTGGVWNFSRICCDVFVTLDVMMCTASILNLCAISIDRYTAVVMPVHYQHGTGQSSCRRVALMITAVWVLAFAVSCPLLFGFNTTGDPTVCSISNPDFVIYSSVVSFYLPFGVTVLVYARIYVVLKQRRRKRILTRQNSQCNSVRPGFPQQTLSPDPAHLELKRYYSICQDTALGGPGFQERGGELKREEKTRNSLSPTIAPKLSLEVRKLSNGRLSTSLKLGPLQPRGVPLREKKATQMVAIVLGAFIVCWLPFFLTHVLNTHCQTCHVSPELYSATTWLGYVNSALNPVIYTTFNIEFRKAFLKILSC
Method: as §3, §4

Bradykinin B2 (h) = biological target: T7, Bradykinin B2 (h) (Homo sapiens, UniProt P30411); test: Binding B2 (h) (ag); conditions: read-out: % Inhibition of Control Specific Binding @ 10 μM
T7 construct: expressed in transfected cells; host or cells: CHO cells
T7 sequence (P30411 1-391): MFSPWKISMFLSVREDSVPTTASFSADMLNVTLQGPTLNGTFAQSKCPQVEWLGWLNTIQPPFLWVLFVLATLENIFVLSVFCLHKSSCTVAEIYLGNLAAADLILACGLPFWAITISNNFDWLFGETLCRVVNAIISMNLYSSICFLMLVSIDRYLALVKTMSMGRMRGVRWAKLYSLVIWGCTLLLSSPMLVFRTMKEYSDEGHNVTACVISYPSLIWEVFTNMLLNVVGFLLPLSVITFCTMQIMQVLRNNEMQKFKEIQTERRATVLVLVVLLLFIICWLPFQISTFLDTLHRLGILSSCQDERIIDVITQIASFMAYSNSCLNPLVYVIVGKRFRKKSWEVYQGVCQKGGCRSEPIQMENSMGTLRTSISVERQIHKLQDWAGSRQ
Method: as §3, §4

GABA transaminase = biological target: T8, GABA transaminase (Rattus norvegicus, UniProt P50554); test: Enzyme assay GABA transaminase; type: biochemical; conditions: read-out: % Inhibition of Control Values @ 10 μM
T8 construct: rat brain; from tissue; host or cells: rat brain
T8 sequence (P50554 28-500): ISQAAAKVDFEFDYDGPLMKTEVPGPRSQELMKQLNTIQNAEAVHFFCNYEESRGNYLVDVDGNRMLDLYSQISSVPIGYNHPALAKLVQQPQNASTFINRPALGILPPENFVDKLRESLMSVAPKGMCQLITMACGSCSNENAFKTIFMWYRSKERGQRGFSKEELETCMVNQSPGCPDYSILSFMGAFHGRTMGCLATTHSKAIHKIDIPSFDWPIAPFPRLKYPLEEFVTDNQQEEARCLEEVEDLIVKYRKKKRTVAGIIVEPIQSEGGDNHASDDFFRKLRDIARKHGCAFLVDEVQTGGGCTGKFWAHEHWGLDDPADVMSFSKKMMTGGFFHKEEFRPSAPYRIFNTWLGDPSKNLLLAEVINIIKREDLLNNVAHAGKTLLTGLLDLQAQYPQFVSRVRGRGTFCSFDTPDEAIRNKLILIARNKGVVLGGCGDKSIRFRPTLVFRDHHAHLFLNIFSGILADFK
Excerpt: as §1, §2

T1 sequence (P04177 whole entry): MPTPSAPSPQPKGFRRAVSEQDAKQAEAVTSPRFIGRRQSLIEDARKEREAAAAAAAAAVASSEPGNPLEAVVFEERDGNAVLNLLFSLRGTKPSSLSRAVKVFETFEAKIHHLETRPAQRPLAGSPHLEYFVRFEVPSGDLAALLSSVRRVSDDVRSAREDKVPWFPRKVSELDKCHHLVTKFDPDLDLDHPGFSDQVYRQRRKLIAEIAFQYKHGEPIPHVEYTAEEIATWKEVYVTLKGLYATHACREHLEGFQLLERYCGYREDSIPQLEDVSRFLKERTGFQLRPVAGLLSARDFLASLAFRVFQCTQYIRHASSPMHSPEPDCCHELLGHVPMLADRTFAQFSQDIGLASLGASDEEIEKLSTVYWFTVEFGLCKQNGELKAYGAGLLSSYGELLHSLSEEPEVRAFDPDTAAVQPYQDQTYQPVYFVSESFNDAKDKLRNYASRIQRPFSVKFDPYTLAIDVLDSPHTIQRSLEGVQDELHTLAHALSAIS

Row | Compound | inhibition at 10 µM (tyrosine hydroxylase) | inhibition at 10 µM (PNMT) | inhibition at 10 µM (MAO-B (h)) | inhibition at 10 µM [1] | % Inhibition of Control Specific Binding @ 10 μM (GABA transporter) | inhibition at 10 µM (Histamine H2 (h)) | % Inhibition of Control Specific Binding @ 10 μM (P2Y) | % Inhibition of Control Specific Binding @ 10 μM (KV channel) | % Inhibition of Control Specific Binding @ 10 μM (5-HT (ns)) | % Inhibition of Control Specific Binding @ 10 μM [2] | inhibition at 10 µM (Dopamine D3 (h)) | inhibition at 10 µM (Bradykinin B2 (h)) | inhibition at 10 µM (GABA transaminase)
1 | CC1(C)C(=O)N(c2ccc(C#N)c(C(F)(F)F)c2)C(=O)N1c1ccc(C(N)=O)c(F)c1 [(MIII), 4-(3-(4-cyano-3-(trifluoromethyl)phenyl)-5,5-dimethyl-2,4-dioxoimidazolidin-1-yl)-2-fluorobenzamide] | -2% | -2% | -5% | -13% | −35% | -19% | −1% | −2% | −12% | −2% | 0% | -3% | -2%
2 | CC1(C)C(=O)N(c2ccc(C#N)c(C(F)(F)F)c2)C(=S)N1c1ccc(C(=O)O)c(F)c1 [(MI), 4-(3-(4-cyano-3-(trifluoromethyl)phenyl)-5,5-dimethyl-4-oxo-2-thioxoimidazolidin-1-yl)-2-fluorobenzoic acid] | -4% | -6% | 8% | -16% | −16% | -41% | −19% | −2% | 21% | 16% | 7% | 2% | -7%
3 | CNC(=O)c1ccc(N2C(=O)N(c3ccc(C#N)c(C(F)(F)F)c3)C(=O)C2(C)C)cc1F [(MIV), 4-(3-(4-cyano-3-(trifluoromethyl)phenyl)-5,5-dimethyl-2,4-dioxoimidazolidin-1-yl)-2-fluoro-N-methylbenzamide] | -2% | 14% | 11% | 10% | −24% | -20% | 0% | −4% | 6% | 16% | 7% | 0% | -1%
4 | CC1(C)C(=O)N(c2ccc(C#N)c(C(F)(F)F)c2)C(=S)N1c1ccc(C(N)=O)c(F)c1 [(MII), 4-(3-(4-Cyano-3-(trifluoromethyl)phenyl)-5,5-dimethyl-4-oxo-2-thioxoimidazolidin-1-yl)-2-fluorobenzamide] | 2% | -4% | -4% | -22% | 7% | -27% | −2% | −3% | 14% | 18% | 11% | -12% | -5%
